Measured values from patent publication US12692267B2 (Madera Therapeutics, LLC, priority 2019, dated 2026).
Read-outs that look alike come from different tables or passages of the source.

Assays:
[1] = target: recombinant human caseinolytic peptidase hClpP (Homo sapiens, UniProt Q16740); assay: hClpP peptide hydrolysis assay (Ac-WLA-AMC); settings: for Dose-dependency of hClpP activation: Protocol 2, purified hClpP, Ac-WLA-AMC; for Time course of hClpP activity: 1 uM, Protocol 2
Procedure: Briefly, the activity of recombinant hClpP proteolytic subunit (1 μg/mL) was measured in the assay buffer composed of 50 mM Tris, 10 mM MgCl2, 100 mM KCl, 1 mM DTT, 4 mM ATP, 0.02% Triton X-100 and 5% Glycerol, pH 8.0 (HCl) using 10 µM of fluorogenic Ac-WLA-AMC substrate as described in references above. […] Using the first protocol (Protocol 1), the reaction was initiated by immediately mixing enzyme and substrate in the presence of indicated doses of compounds. Applying a second protocol (Protocol 2), the enzyme and compounds were mixed and incubated in assay buffer for 60 min before initiating the reaction by adding Ac-WLA-ACM substrate.
Enzymatic activity of hClpP was measured in assay buffer (as described in Experimental Procedure/Materials and Methods) and the level of fluorescence of liberated coumarin monitored continuously.

[2] = tested on: HCT116 (human colon cancer); assay: Cancer cell viability, CCK-8, HCT116; format: cell-based; settings: for EC50: read-out: EC50 (uM, HCT116); for IC50: read-out: IC50 (uM, HCT116)
Procedure: (§1) Cancer cell lines. […] The plate is incubated for 48 hours.
(§2) CCK-8 solution is added directly to the cells.

[3] = tested on: MDA-MB-231 (MDA 231, human breast adenocarcinoma); assay: Cancer cell viability, CCK-8, MDA-MB-231; format: cell-based; settings: for EC50: read-out: EC50 (uM, MDA 231); for IC50: read-out: IC50 (uM, MDA 231)
Procedure: as §1, §2

[4] = tested on: ClpX and TUFM; assay: ClpX and TUFM Western blots in SUM159 cells (FIG. 5); settings: concentration response and time course
[5] = Homo sapiens, HCT-116, 48 h, HCT116, 48 hours, CCK-8
[6] = Homo sapiens, MDA-MB-231, MDA 231, 48 hours, CCK-8

Sequence of recombinant human caseinolytic peptidase hClpP (Q16740 57-277): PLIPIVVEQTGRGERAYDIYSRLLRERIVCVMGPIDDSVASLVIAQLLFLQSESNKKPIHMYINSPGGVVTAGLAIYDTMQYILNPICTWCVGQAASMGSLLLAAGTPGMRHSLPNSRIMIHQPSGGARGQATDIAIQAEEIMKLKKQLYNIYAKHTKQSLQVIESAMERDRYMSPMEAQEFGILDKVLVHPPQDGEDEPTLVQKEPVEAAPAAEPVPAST

With `O=C(NCc1ccc2c(c1)OCO2)c1nnc(Cc2ccc(F)cc2Cl)o1` [Ex. 1, reference compound] the “Dose-dependency of hClpP activation” value [1] was “dose-dependent increases in hClpP activity”.
In the case of `N#Cc1cccc(CN2CCC3=C(C2)C(=O)N(Cc2ccc(C(F)(F)F)cc2)C2=NCCCN23)c1` [Ex. 62, 3-[(8-oxo-9-{[4-(trifluoromethyl)phenyl]methyl}-1,5,9,11-tetraazatricyclo[8.4.0.0^2,7]tetradeca-2(7),10-dien-5-yl)methyl]benzonitrile], the EC50 [2, 5] is reported as 0.022 µM, the EC50 [3, 6] is reported as 0.021 µM and the “Dose-dependency of hClpP activation” value [1] is reported as “Dose-dependent increases in hClpP activity”.
`N#Cc1cccc(CN2CC3=C(C2)N2CCN=C2N(Cc2ccc(Cl)cc2)C3=O)c1` [Ex. 66] was tested, and the EC50 [2, 5] was 0.0055 µM and the “Dose-dependency of hClpP activation” value [1] was “Dose-dependent increases in hClpP activity”.
With `N#Cc1cccc(CC2CCC3=C(C2)C(=O)N(Cc2ccc(C(F)(F)F)cc2)C2=NCCN23)c1` (stereo not shown) [Ex. 67, 3-[(5-oxo-4-{[4-(trifluoromethyl)phenyl]methyl}-1H,2H,4H,5H,6H,7H,8H,9H-imidazo[1,2-a]quinazolin-7-yl)methyl]benzonitrile] the EC50 [2, 5] was 1.2 µM and the “Dose-dependency of hClpP activation” value [1] was “Dose-dependent increases in hClpP activity”.
`N#Cc1cccc(CC2CCC3=C(C2)C(=O)N(Cc2ccc(Cl)cc2)C2=NCCN23)c1` (stereo not shown) [Ex. 68, 3-({4-[(4-chlorophenyl)methyl]-5-oxo-1H,2H,4H,5H,6H,7H,8H,9H-imidazo[1,2-a]quinazolin-7-yl}methyl)benzonitrile] was tested, and the EC50 [2, 5] was 1.5 µM and the “Dose-dependency of hClpP activation” value [1] was “Dose-dependent increases in hClpP activity”.
For `O=C1C2=C(CCN(Cc3cccc(OC(F)(F)F)c3)C2)N2CCN=C2N1Cc1ccc(C(F)(F)F)cc1` [Example 3], the IC50 ([2]; HCT116, 48 hours, CCK-8) was 0.36 µM and the IC50 ([3]; MDA 231, 48 hours, CCK-8) was 0.27 µM.
Molecule `N#Cc1ccc(CN2CCC3=C(C2)C(=O)N(Cc2ccc(Cl)cc2)C2=NCCN23)cc1` [Example 22] has an IC50 [2, 5] of 1.8 µM and an IC50 [3, 6] of 3.4 µM.
`O=C1C2=C(CCN(Cc3cccc(Cl)c3)C2)N2CCN=C2N1Cc1ccc(C(F)(F)F)cc1` [Example 27] was tested, and the IC50 [2, 5] was 0.016 µM and the IC50 [3, 6] was 0.016 µM.
With `Cn1c2c(c(=O)n(Cc3cccc(C(F)(F)F)c3)c1=O)CN(Cc1ccccc1)CC2` [Example 39] the EC50 [2, 5] was 1.4 µM and the EC50 [3, 6] was 1.1 µM.
Molecule `Cn1c2c(c(=O)n(Cc3ccc(C(F)(F)F)cc3)c1=O)CN(Cc1cccc(Cl)c1)CC2` [Example 56] has an EC50 ([2]; HCT116, 48 hours, CCK-8) of 0.098 µM and an EC50 ([3]; MDA 231, 48 hours, CCK-8) of 0.29 µM.
`N#Cc1cccc(CN2CCc3c(c(=O)n(Cc4ccc(C(F)(F)F)cc4)c(=O)n3CCCCN)C2)c1` [Example 58, 3-((1-(4-aminobutyl)-2,4-dioxo-3-(4-(trifluoromethyl)benzyl)-1,2,3,4,7,8-hexahydropyrido[4,3-d]pyrimidin-6 (5H)-yl)methyl)benzonitrile] gave an EC50 [2, 5] of 0.23 µM.
Molecule `Cc1nc2c(c(=O)n1Cc1ccc(Cl)cc1)CN(Cc1cccc(C#N)c1)CC2` [Example 61, 3-({3-[(4-chlorophenyl)methyl]-2-methyl-4-oxo-3H,4H,5H,6H,7H,8H-pyrimidin-6-yl}methyl)benzonitrile] has an EC50 [2, 5] of 0.097 µM and an EC50 [3, 6] of 0.096 µM.
For `N#Cc1cccc(Cc2nnc(C(=O)NCc3ccc(Cl)cc3)o2)c1` [Example 63, N-[(4-chlorophenyl)methyl]-5-[(3-cyanophenyl)methyl]-1,3,4-oxadiazole-2-carboxamide], the EC50 [2, 5] was 4 µM and the EC50 [3, 6] was 5 µM.
Molecule `O=C1CCc2ccc(CN3CCC4=C(C3)C(=O)N(Cc3ccc(Cl)cc3)C3=NCCN34)cc21` [Example 64, 7-[(4-chlorophenyl)methyl]-11-[(3-oxo-2,3-dihydro-1H-inden-5-yl)methyl]-2,5,7,11-tetraazatricyclo[7.4.0.0^2,6]trideca-1(9),5-dien-8-one] has an EC50 [2, 5] of 10.5 µM.
`Cc1nc2c(c(=O)n1Cc1ccc(Cl)cc1)CN(Cc1cccc(C#N)c1)C2` [Example 69, 3-({3-[(4-chlorophenyl)methyl]-2-methyl-4-oxo-3H,4H,5H,6H,7H-pyrrolo[3,4-d]pyrimidin-6-yl}methyl)benzonitrile] showed an EC50 [2, 5] of 0.097 µM.
For `CC1(C)CN=C2N(Cc3ccc(Cl)cc3)C(=O)C3=C(CCN(Cc4cccc(C#N)c4)C3)N2C1` [Example 70, 3-({9-[(4-chlorophenyl)methyl]-13,13-dimethyl-8-oxo-1,5,9,11-tetraazatricyclo[8.4.0.0^2,7]tetradeca-2 (7), 10-dien-5-yl}methyl)benzonitrile], the EC50 [2, 5] was 1.4 µM.
`N#Cc1cccc(CN2CCC3=C(C2)C(=O)N(Cc2ccc(Cl)cc2)C2=NCC(F)(F)CN23)c1` [Example 71, 3-({9-[(4-chlorophenyl)methyl]-13,13-difluoro-8-oxo-1,5,9,11-tetraazatricyclo[8.4.0.0^2,7]tetradeca-2 (7), 10-dien-5-yl}methyl)benzonitrile] was tested, and the EC50 [2, 5] was 0.244 µM.
Molecule `Cc1nc2c(c(=O)n1Cc1ccc(Br)cc1)CN(Cc1cccc(C#N)c1)CC2` [Example 72, 3-({3-[(4-bromophenyl)methyl]-2-methyl-4-oxo-3H,4H,5H,6H,7H,8H-pyrido[4,3-d]pyrimidin-6-yl}methyl)benzonitrile] has an EC50 [2, 5] of 0.077 µM.
With `Cc1nc2c(c(=O)n1Cc1ccc(C(F)(F)F)cc1)CN(Cc1cccc(C#N)c1)CC2` [Example 73, 3-[(2-methyl-4-oxo-3-{[4-(trifluoromethyl)phenyl]methyl}-3H,4H,5H,6H,7H,8H-pyrido[4,3-d]pyrimidin-6-yl)methyl]benzonitrile] the EC50 [2, 5] was 0.069 µM.
`N#Cc1cccc(CN2CCc3ncn(Cc4ccc(Br)cc4)c(=O)c3C2)c1` [Example 74, 3-({3-[(4-bromophenyl)methyl]-4-oxo-3H,4H,5H,6H,7H,8H-pyrido[4,3-d]pyrimidin-6-yl}methyl)benzonitrile] was tested, and the EC50 [2, 5] was 0.02 µM.
`N#Cc1cccc(CN2CCc3ncn(Cc4ccc(C(F)(F)F)cc4)c(=O)c3C2)c1` [Example 75, 3-[(4-oxo-3-{[4-(trifluoromethyl)phenyl]methyl}-3H,4H,5H,6H,7H,8H-pyrido[4,3-d]pyrimidin-6-yl)methyl]benzonitrile] gave an EC50 [2, 5] of 0.098 µM.
`N#Cc1cccc(CN2CC3=C(C2)N2CCN=C2N(Cc2ccc(Br)cc2)C3=O)c1` [Example 76, 3-({8-[(4-bromophenyl)methyl]-7-oxo-1,4,8,10-tetraazatricyclo[7.3.0.0^2,6}dodeca-2(6),9-dien-4-yl}methyl)benzonitrile] gave an EC50 [2, 5] of 0.003 µM.
With `N#Cc1cccc(CN2CC3=C(C2)N2CCN=C2N(Cc2ccc(C(F)(F)F)cc2)C3=O)c1` [Example 77, 3-[(7-oxo-8-{[4-(trifluoromethyl)phenyl]methyl}-1,4,8,10-tetraazatricyclo[7.3.0.0^2,6]dodeca-2 (6),9-dien-4-yl)methyl]benzonitrile] the EC50 [2, 5] was 0.0021 µM.
In the case of `CC#Cc1cccc(CN2CCc3ncn(Cc4ccc(Br)cc4)c(=O)c3C2)c1` [Example 78], the EC50 [2, 5] is reported as 5.2 µM.
`CC#Cc1cccc(CN2CCc3ncn(Cc4ccc(C(F)(F)F)cc4)c(=O)c3C2)c1` [Example 79] showed an EC50 [2, 5] of 5.7 µM.
For `O=C1C2=C(CN(Cc3ccccc3)C2)N2CCN=C2N1Cc1ccc(Cl)cc1` [Example 80, 4-benzyl-8-[(4-chlorophenyl)methyl]1,4,8,10-tetraazatricyclo[7.3.0.0^2,6]dodeca-2 (6),9-diene-7-one], the EC50 [2, 5] was 0.011 µM and the “Time course of hClpP activity” value [1] was “time-dependent increase in hClpP activity”.
`O=C1C2=C(CN(Cc3ccccc3)C2)N2CCN=C2N1Cc1ccc(Br)cc1` [Example 81, 4-benzyl-8-[(4-bromophenyl)methyl]1,4,8,10-tetraazatricyclo[7.3.0.0^2,6]dodeca-2 (6),9-diene-7-one] was tested, and the EC50 [2, 5] was 0.039 µM and the “Time course of hClpP activity” value [1] was “time-dependent increase in hClpP activity”.
With `O=C1C2=C(CN(Cc3ccccc3)C2)N2CCN=C2N1Cc1ccc(C(F)(F)F)cc1` [Example 82, 4-benzyl-8-{[4-(trifluoromethyl)phenyl]methyl}1,4,8,10-tetraazatricyclo[7.3.0.0^2,6]dodeca-2 (6), 9-diene-7-one] the EC50 [2, 5] was 0.01 µM and the “Time course of hClpP activity” value [1] was “time-dependent increase in hClpP activity”.
For `N#Cc1cccc(CN2CCC3=C(C2)C(=O)N(Cc2ccc(Cl)cc2)C2=NCCCN23)c1` [Example 83, 3-({9-[(4-chlorophenyl)methyl]-8-oxo-1,5,9,11-tetraazatricyclo[8.4.0.0 ^2,7]tetradeca-2(7), 10-dien-5yl}methyl)benzonitrile], the EC50 [2, 5] was 0.28 µM and the “Time course of hClpP activity” value [1] was “time-dependent increase in hClpP activity”.
In the case of `N#Cc1cccc(CN2CCC3=C(C2)C(=O)N(Cc2ccc(Br)cc2)C2=NCCCN23)c1` [Example 84, 3-({9-[(4-bromophenyl)methyl]-8-oxo-1,5,9,11-tetraazatricyclo[8.4.0.0 ^2,7]tetradeca-2(7), 10-dien-5yl}methyl)benzonitrile], the EC50 [2, 5] is reported as 0.013 µM and the “Time course of hClpP activity” value [1] is reported as “time-dependent increase in hClpP activity”.
`Cc1ccccc1CN1C(=O)C2=C(CCN(Cc3ccccc3)C2)N2CCN=C12` [ONC201, reference compound] was tested, and the EC50 ([2]; Homo sapiens, HCT-116, 48 h) was 2.8 µM, the IC50 ([2]; Homo sapiens, HCT-116, 48 h) was 2.8 µM and the EC50 ([3]; Homo sapiens, MDA-MB-231, 48 h) was 3 µM. The IC50 ([3]; Homo sapiens, MDA-MB-231, 48 h) was 3 µM and the “ClpX and TUFM protein level” value [4] was “reduction of the protein ClpX and TUFM”.
